Earlier results as cited in patent US11612885B2, “Methods, compositions and kits useful for pH gradient cation exchange chromatography” (WATERS TECHNOLOGIES CORPORATION, priority 2018, dated 2023).

conditions: buffer salts used in the Examples

Row | SMILES | pKa1 | pKa2
1 | NC(=O)CNCCS(=O)(=O)O [ACES, 2-(carbamoylmethylamino)ethanesulfonic acid] | 6.9 | –
2 | CC(C)(N)CO [AMP, 2-amino-2-methyl-1-propanol] | 9.7 | –
3 | NCC(=O)NCC(=O)O [Gly-Gly, 2-[(2-Aminoacetyl)amino] acetic acid] | 3.1 | 8.1
4 | O=S(=O)(O)CCCNC1CCCCC1 [CAPS, 3-(Cyclohexylamino)-1-propanesulfonic acid] | 10.4 | –
5 | NCC(=O)O [Gly, Aminoethanoic acid] | 2.4 | 8.1
6 | OCC(CO)(CO)NCCCNC(CO)(CO)CO [BIS-TRIS Propane, 1,3-bis(tris(hydroxymethyl)methylamino)propane] | 6.8 | 9.1
7 | O=C(O)CCC(=O)O [Succinic Acid, 1,4-butandioic acid] | 4.1 | 5.5
8 | CC(N)(CO)CO [AMPD, 2-amino-2-methyl-1,3-propanediol] | 8.8 | –
9 | c1c[nH]cn1 [Imidazole, 1,3-diazacyclopenta-2,4-diene] | 7.0 | –

conditions: background statement; exposure

Row | SMILES | known toxicity
10 | C1CNCCN1 [Piperazine, 1,4-Diazinane] | acute respiratory and skin irritation as well as organ damage with prolonged exposure
